Values quoted from earlier work, collected in patent US20100279989A1, “ORAL CONTRACEPTION WITH TRIMEGESTONE” (GRÜNENTHAL GMBH, priority 2005, published 2010).

Tested on: ovulation
Details: p.o.

C[C@H](O)C(=O)[C@@]1(C)CC[C@H]2[C@@H]3CCC4=CC(=O)CCC4=C3CC[C@@]21C [trimegestone, 17β-[(S)-2-hydroxypropanoyl]-17α-methyl-estra-4,9-dien-3-one]
ovulation inhibition dose: 0.5 mg per day
